Paper PMC8894567 (The Journal of Antibiotics, 2022)

Tests used:
[1] = system: influenza virus A H7N1; settings: cited from earlier work
[2] = system: influenza virus A/Puerto Rico/8/34 (H1N1); assay type: cell-based
[3] = system: influenza type A virus; settings: cited from earlier work
[4] = system: influenza type B; settings: cited from earlier work
[5] = system: HIV; settings: read-out: EC50 anti-HIV activity; cited from earlier work
[6] = system: herpes virus; settings: read-out: EC50 antiherpetic; cited from earlier work
[7] = system: Flu A H1N1 strain; settings: cited from earlier work

Compound | protection index [3] [%] | protection index [4] [%] | other results
3-oxime of betulonic acid and L-leucine-28-amide | – | – | EC50 [1]: 2.17 µM; suppression of influenza virus A H7N1 [1]: 90%
CC(N)C12CC3CC(CC(C3)C1)C2 (stereo not drawn) [Rimantadine] | – | – | SI, selectivity index CC50/IC50 [2]: 5
COC(=O)[C@]12CC[C@@H](C)[C@H](C)[C@H]1C1=CC[C@@H]3[C@@]4(C)CC[C@H](O)C(C)(C)[C@@H]4CC[C@@]3(C)[C@]1(C)CC2 [methyl ester of ursolic acid] | 60 | 80 | –
Alnincanone | 60 | 80 | –
Ethyl β-alaninate diamide 2,3 seco-lupane | – | – | EC50 [5]: 5.1 µM; EC50 [6]: 4.1 µM
echinocystic acid | 60 | 80 | –
lupane 3,4-seco-3,28-bis-N,N-methylpiperazine-amide | – | – | IC50 [7]: 27 µM
